Measurements published in patent US7632783B2 (priority 2004, dated 2009).

Columns and labels:
[1] = tested on: rice blast (Pyricularia oryzae); assay type: in vivo; conditions: potted rice (variety Karakaze), spraying liquid 300 ppm after spore inoculation, observed 7 days after inoculation, levels 0 to 3
[2] = tested on: gray mold (Botrytis cinerea); test: Tomato gray mold control test (preventive effects); assay type: in vivo; conditions: potted tomato (giant Fukuju variety), spraying liquid 300 ppm before spore inoculation, investigated 2 days after inoculation, levels 0 to 3
Description: Bulk drug was dissolved in a mixed solution of dimethylsulfoxide and methanol (volume ratio: 7/3), and spraying liquids containing 300 ppm of compounds of the present invention were uniformly sprayed onto potted test plants (tomato: giant Fukuju variety) in the second to third leaf stage. […], a suspension of pathogen spores were inoculated by spraying onto the pots in an inoculation room at a room temperature of 20 to 23° C. to promote the onset of disease. The degree of disease onset was investigated 2 days after inoculation. The test was carried out in duplicate.
Furthermore, the degree of disease onset was evaluated to one of four levels from 0 to 3 according to the criteria below by macroscopically observing the degree of disease onset of the test plants.
1: Degree of disease onset less than 40% of the untreated area
2: Degree of disease onset 40% to less than 80% of the untreated area
3: Degree of disease onset 80% or more

Structure (SMILES) | melting point | degree of disease onset [1] | degree of disease onset [2]
CC1(C)Cc2c(F)cccc2C(C)(c2cnc3ccccc3c2)N1 (centres unmarked) | 148 to 150 °C |  | 
CC1(C)Cc2c(Cl)cccc2C(C)(c2cnc3ccccc3c2)N1 (centres unmarked) | 142 to 144 °C |  | 
CC1(C)Cc2c(C(N)=O)cccc2C(c2cnc3ccccc3c2)=N1 | 236 to 240 °C |  | 
CC1(C)N=C(c2cnc3ccccc3c2)c2cccc(F)c2C1O (centres unmarked) | 225 to 226 °C |  | 
CC1(C)N=C(c2cnc3ccccc3c2)c2ccccc2C1=O | 137 °C |  | 
CC1(C)NC(c2cnc3ccccc3c2)c2cccc(F)c2C1=O (centres unmarked) | 228 to 229 °C |  | 
CC1(C)N=C(c2cnc3ccccc3c2)c2cc(Br)ccc2C1(F)F | 123 to 125 °C |  | 
CC1(C)Cc2c(cccc2-c2cnco2)C(c2cnc3ccccc3c2)=N1 | 175 to 179 °C |  | 
CN1C(c2cnc3ccccc3c2)c2ccccc2CC1(C)C (centres unmarked) | 116 to 118 °C |  | 
CC1(C)Cc2ccccc2C(c2cnc3ccccc3c2)N1 (centres unmarked) [Example 4, 3-(3,3-dimethyl-1,2,3,4-tetrahydroisoquinolin-1-yl)quinoline] | 117 to 122 °C | 0 | 
CC1(C)Cc2c(F)cccc2C(c2cnc3ccccc3c2)N1 (centres unmarked) [Example 110, 3-(5-fluoro-3,3-dimethyl-1,2,3,4-tetrahydroisoquinoline-1-yl)quinoline] | 142 to 144 °C | 0 | 0
CC1(C)Cc2c(Cl)cccc2C(c2cnc3ccccc3c2)N1 (centres unmarked) [Example 112, 3-(5-chloro-3,3-dimethyl-1,2,3,4-tetrahydroisoquinoline-1-yl)quinoline] | 129 to 131 °C | 0 | 0
CC1c2c(F)cccc2C(c2cnc3ccccc3c2)NC1(C)C (centres unmarked) [Example 124, 3-(5-fluoro-3,3,4-trimethyl-1,2,3,4-tetrahydroisoquinoline-1-yl)quinoline] | 133 to 134 °C | 0 | 
CC1(C)NC(c2cnc3ccccc3c2)c2cccc(F)c2C1(C)C (centres unmarked) [Example 125, 3-(5-fluoro-3,3,4,4-tetramethyl-1,2,3,4-tetrahydroisoquinoline-1-yl)quinoline] | 179 to 181 °C | 0 | 
CCOC1(C)c2c(F)cccc2C(c2cnc3ccccc3c2)=NC1(C)C (centres unmarked) [Example 184, 3-(4-ethoxy-5-fluoro-3,3,4-trimethyl-3,4-dihydroisoquinolin-1-yl)quinoline] | 118 to 119 °C | 0 | 
CCC1(OC)c2c(F)cccc2C(c2cnc3ccccc3c2)=NC1(C)C (centres unmarked) [Example 185, 3-(4-ethyl-5-fluoro-4-methoxy-3,3-dimethyl-3,4-dihydroisoquinolin-1-yl)quinoline] | 145 to 147 °C | 0 | 
CC1(C)Cc2c(F)cccc2C2(c3cnc4ccccc4c3)ON12 (centres unmarked) [Example 197, 5-fluoro-3,3-dimethyl-8b-quinolin-3-yl-4,8b-dihydro-3H-oxazileno[3,2-a]isoquinoline] |  | 0 | 0
CC1(C)c2cc(F)ccc2C2(c3cnc4ccccc4c3)ON2C1(C)C (centres unmarked) [Example 199, 6-fluoro-3,3,4,4-tetramethyl-8b-quinolin-3-yl-4,8b-dihydro-3H-oxazileno[3,2-a]isoquinoline] |  | 0 | 0
CC1(C)c2ccccc2C2(c3cnc4ccccc4c3)ON2C12CCCC2 (centres unmarked) [Example 202, 4′,4′-dimethyl-8b′-quinolin-3-yl-4′,8b′-dihydrospiro[cyclopentane-1,3′-oxazileno[3,2-a]isoquinoline]] |  | 0 | 0
CC1(C)N2OC2(c2cnc3ccccc3c2)c2cccc(F)c2C1(F)F (centres unmarked) [Example 203, 4,4,5-trifluoro-3,3-dimethyl-8b-quinolin-3-yl-4,8b-dihydro-3H-oxazileno[3,2-a]isoquinoline] |  | 0 | 0
CC1(C)c2c(F)cccc2C(c2cnc3ccccc3c2)=[N+]([O-])C1(C)C [Example 204, 3-(5-fluoro-3,3,4,4-tetramethyl-2-oxide-3,4-dihydroisoquinolin-1-yl)quinoline] |  | 0 | 0
CC1(C)c2ccccc2C(c2cnc3ccccc3c2)=[N+]([O-])C1(C)C [Example 207, 3-(3,3,4,4-tetramethyl-2-oxide-3,4-dihydroisoquinolin-1-yl)quinoline] |  | 0 | 0
CC1(C)c2cc(F)ccc2C(c2cnc3ccccc3c2)=[N+]([O-])C1(C)C [Example 209, 3-(6-fluoro-3,3,4,4-tetramethyl-2-oxide-3,4-dihydroisoquinolin-1-yl)quinoline] |  | 0 | 0
CC1(C)c2cc(Cl)ccc2C(c2cnc3ccccc3c2)=[N+]([O-])C1(C)C [Example 211, 3-(6-chloro-3,3,4,4-tetramethyl-2-oxide-3,4-dihydroisoquinolin-1-yl)quinoline] |  | 0 | 0
CC1(C)c2ccccc2C(c2cnc3ccccc3c2)=[N+]([O-])C12CCCCC2 [Example 217] |  | 0 | 0
CC1(C)[N+]([O-])=C(c2cnc3ccccc3c2)c2ccccc2C1(F)F [Example 218, 3-(4,4-difluoro-3,3-dimethyl-2-oxide-3,4-dihydroisoquinolin-1-yl)quinoline] |  | 0 | 0
CC1(C)[N+]([O-])=C(c2cnc3ccccc3c2)c2cccc(F)c2C1(F)F [Example 219, 3-(4,4,5-trifluoro-3,3-dimethyl-2-oxide-3,4-dihydroisoquinolin-1-yl)quinoline] |  | 0 | 0
